From patent US12077503B2, “Substituted cyclic amides and their use as herbicides” (FMC CORPORATION, priority 2015, dated 2024)

Tests used:
Type in all cases: in vivo
[1] = tested on: pigweed (Amaranthus retroflexus); assay: Test A preemergence; settings: preemergence
[2] = tested on: ryegrass, Italian (Italian ryegrass, Lolium multiflorum); assay: Test A preemergence; settings: preemergence
In short: (§1)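 Preemergence directed soil spray on seeded pots, or postemergence application to plants 2–10 cm, one- to two-leaf. Solvent mixture non-phytotoxic, with surfactant. Scored ~10 d later, visually, 0–100 vs untreated.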

[3] = tested on: barnyardgrass (Echinochloa crus-galli); assay: Test A preemergence; settings: preemergence
In short: as §1

[4] = tested on: giant foxtail (Setaria faberii); assay: Test A preemergence; settings: preemergence
In short: as §1

Kochia (Kochia scoparia) [5] = assay: Test A preemergence; settings: preemergence
In short: as §1

[6] = tested on: ragweed (common ragweed, Ambrosia elatior); assay: Test A preemergence; settings: preemergence
In short: as §1

[7] = tested on: pigweed (Amaranthus retroflexus); assay: Test A postemergence; settings: postemergence, 0 to 100 scale (0 no effect, 100 complete control)
In short: as §1

[8] = tested on: blackgrass (Alopecurus myosuroides); assay: Test A postemergence; settings: postemergence, 0 to 100 scale (0 no effect, 100 complete control)
In short: as §1

[9] = tested on: ryegrass, Italian (Italian ryegrass, Lolium multiflorum); assay: Test A postemergence; settings: postemergence, 0 to 100 scale (0 no effect, 100 complete control)
In short: as §1

[10] = tested on: barnyardgrass (Echinochloa crus-galli); assay: Test A postemergence; settings: postemergence, 0 to 100 scale (0 no effect, 100 complete control)
In short: as §1

corn (Zea mays) = assay: Test A postemergence; settings: postemergence, 0 to 100 scale (0 no effect, 100 complete control)
In short: as §1

[11] = tested on: giant foxtail (Setaria faberii); assay: Test A postemergence; settings: postemergence, 0 to 100 scale (0 no effect, 100 complete control)
In short: as §1

Kochia (Kochia scoparia) [12] = assay: Test A postemergence; settings: postemergence, 0 to 100 scale (0 no effect, 100 complete control)
In short: as §1

[13] = tested on: Galium (catchweed bedstraw, Galium aparine); assay: Test A postemergence; settings: postemergence, 0 to 100 scale (0 no effect, 100 complete control)
In short: as §1

[14] = tested on: wheat (Triticum aestivum); assay: Test A postemergence; settings: postemergence, 0 to 100 scale (0 no effect, 100 complete control)
In short: as §1

[15] = tested on: ragweed (common ragweed, Ambrosia elatior); assay: Test A postemergence; settings: postemergence, 0 to 100 scale (0 no effect, 100 complete control)
In short: as §1

[16] = tested on: barnyardgrass (Echinochloa crus-galli); assay: Test B flooded paddy test; settings: Flood, 500 g ai/ha; 0 to 100 scale where 0 is no effect and 100 is complete control; 13 to 15 d
In short: (§2)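 Flooding to 3 cm over soil accompanied treatment, which consisted of adding compound to the standing water around 2-leaf plants; depth was then maintained. Visual assessment versus controls followed at 13 to 15 d (scale 0–100, 0 meaning no effect).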

rice (Oryra sativa) = assay: Test B flooded paddy test; settings: Flood, 500 g ai/ha; 0 to 100 scale where 0 is no effect and 100 is complete control; 13 to 15 d
In short: as §2

[17] = tested on: sedge, umbrella (small-flower umbrella sedge, Cyperus difformis); assay: Test B flooded paddy test; settings: Flood, 500 g ai/ha; 0 to 100 scale where 0 is no effect and 100 is complete control; 13 to 15 d
In short: as §2

[18] = tested on: ducksalad (Heteranthera limosa); assay: Test B flooded paddy test; settings: Flood, 500 g ai/ha; 0 to 100 scale where 0 is no effect and 100 is complete control; 13 to 15 d
In short: as §2

[19] = 125 g ai/ha, visual rating after approx. 10 d, 0 to 100 scale where 0 is no effect and 100 is complete control
[20] = 500 g ai/ha, 0 to 100 scale, 0 = no effect, 100 = complete control
[21] = 125 g ai/ha, visual injury after approximately 10 d
[22] = 500 g ai/ha, visual injury, approx. 10 d

Row | SMILES | Plant response rating, Pigweed [1, 19] | Plant response rating, Pigweed [1, 20] | Plant response rating, Ryegrass, Italian [2, 19] | Plant response rating, Ryegrass, Italian [2, 20] | Plant response rating, Barnyardgrass [3, 19] | Plant response rating, Barnyardgrass [3, 20] | Plant response rating, Foxtail, Giant [4, 19] | Plant response rating, Foxtail, Giant [4, 20] | Plant response rating, Kochia (Kochia (Kochia scoparia) [5]; [19]) | Plant response rating, Ragweed [6, 19] | Plant response rating, Ragweed [6, 20] | Plant response rating, Pigweed [7, 21] | Plant response rating, Pigweed [7, 22] | Plant response rating, Blackgrass [8, 21] | Plant response rating, Blackgrass [8, 22] | Plant response rating, Ryegrass, Italian [9, 21] | Plant response rating, Ryegrass, Italian [9, 22] | Plant response rating, Barnyardgrass [10, 21] | Plant response rating, Barnyardgrass [10, 22] | Plant response rating, Corn (corn (Zea mays); [21]) | also measured
1 | O=C1NCC(c2ccc(I)cc2)C1C(=O)Nc1cccc(F)c1 (racemic) [Compound 703] | 0 | 0 | 0 | 0 | 20 | 80 | 80 | 90 | 0 | 0 | 0 | 0 | 0 | 0 | 0 | 0 | 0 | 60 | 70 | 0 | Plant response rating, Corn (corn (Zea mays); [22]): 0; Plant response rating, Foxtail, Giant [11, 21]: 50; Plant response rating, Foxtail, Giant [11, 22]: 90; Plant response rating, Kochia (Kochia (Kochia scoparia) [12]; [21]): 0; Plant response rating, Kochia (Kochia (Kochia scoparia) [12]; [22]): 0; Plant response rating, Galium [13, 21]: 0; Plant response rating, Galium [13, 22]: 0; Plant response rating, Wheat [14, 21]: 0; Plant response rating, Wheat [14, 22]: 0; Plant response rating, Ragweed [15, 21]: 0; Plant response rating, Ragweed [15, 22]: 0; Plant response rating, Barnyardgrass [16]: 30; Plant response rating, Rice (rice (Oryra sativa)): 0; Plant response rating, Sedge, Umbrella [17]: 0; Plant response rating, Ducksalad [18]: 98
2 | O=C1NCC(c2ccc(I)cc2)C1C(=O)Nc1ccccc1Cl (racemic) [Compound 704] | 0 | 30 | 0 | 20 | 40 | 90 | 90 | 90 | 0 | 0 | 20 | 0 | 20 | 0 | 30 | 0 | 20 | 70 | 90 | 0 | Plant response rating, Kochia (Kochia (Kochia scoparia) [5]; [20]): 30; Plant response rating, Corn (corn (Zea mays); [22]): 0; Plant response rating, Foxtail, Giant [11, 21]: 70; Plant response rating, Foxtail, Giant [11, 22]: 90; Plant response rating, Kochia (Kochia (Kochia scoparia) [12]; [21]): 0; Plant response rating, Kochia (Kochia (Kochia scoparia) [12]; [22]): 20; Plant response rating, Galium [13, 21]: 20; Plant response rating, Galium [13, 22]: 40; Plant response rating, Wheat [14, 21]: 0; Plant response rating, Wheat [14, 22]: 0; Plant response rating, Ragweed [15, 21]: 0; Plant response rating, Ragweed [15, 22]: 20; Plant response rating, Barnyardgrass [16]: 30; Plant response rating, Rice (rice (Oryra sativa)): 0; Plant response rating, Sedge, Umbrella [17]: 0; Plant response rating, Ducksalad [18]: 85
3 | O=C1NCC(c2cccc3ccccc23)C1C(=O)Nc1cccc(F)c1F (racemic) [Compound 711] | 0 | 0 | 0 | 0 | 0 | 0 | 0 | 0 | 0 | 0 | 0 | 0 | 0 | 0 | 0 | 0 | 0 | 0 | 0 | 0 | Plant response rating, Kochia (Kochia (Kochia scoparia) [5]; [20]): 0; Plant response rating, Corn (corn (Zea mays); [22]): 0; Plant response rating, Foxtail, Giant [11, 21]: 0; Plant response rating, Foxtail, Giant [11, 22]: 0; Plant response rating, Kochia (Kochia (Kochia scoparia) [12]; [21]): 0; Plant response rating, Kochia (Kochia (Kochia scoparia) [12]; [22]): 0; Plant response rating, Galium [13, 21]: 0; Plant response rating, Galium [13, 22]: 0; Plant response rating, Wheat [14, 21]: 0; Plant response rating, Wheat [14, 22]: 0; Plant response rating, Ragweed [15, 21]: 0; Plant response rating, Ragweed [15, 22]: 0; Plant response rating, Barnyardgrass [16]: 0; Plant response rating, Rice (rice (Oryra sativa)): 0; Plant response rating, Sedge, Umbrella [17]: 0; Plant response rating, Ducksalad [18]: 60
4 | O=C1NCC(c2cccc3ccccc23)C1C(=O)Nc1ccccc1C(F)(F)F (racemic) [Compound 712] | 0 | 0 | 0 | 0 | 0 | 0 | 0 | 0 | 0 | 0 | 0 | 0 | 0 | 0 | 0 | 0 | 0 | 0 | 0 | 0 | Plant response rating, Kochia (Kochia (Kochia scoparia) [5]; [20]): 0; Plant response rating, Corn (corn (Zea mays); [22]): 0; Plant response rating, Foxtail, Giant [11, 21]: 0; Plant response rating, Foxtail, Giant [11, 22]: 0; Plant response rating, Kochia (Kochia (Kochia scoparia) [12]; [21]): 0; Plant response rating, Kochia (Kochia (Kochia scoparia) [12]; [22]): 0; Plant response rating, Galium [13, 21]: 0; Plant response rating, Galium [13, 22]: 0; Plant response rating, Wheat [14, 21]: 0; Plant response rating, Wheat [14, 22]: 0; Plant response rating, Ragweed [15, 21]: 0; Plant response rating, Ragweed [15, 22]: 0; Plant response rating, Barnyardgrass [16]: 0; Plant response rating, Rice (rice (Oryra sativa)): 0; Plant response rating, Sedge, Umbrella [17]: 0; Plant response rating, Ducksalad [18]: 0
